Experimental data published in the supplement of paper PMC10307832.

How the values were obtained:
Experiment in all cases: relative viability (nuclei count vs DMSO), 5 days (fraction); higher = more cells survive
NCI-H322M = system: NCI-H322M
How it was run: (§1)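 Each reported value is a median over duplicate plates. It expresses relative viability: treated-well nuclei count divided by vehicle-well nuclei count. Lung cancer cell lines in 1536-well plates were dosed by pin tool a day after seeding, alone with one drug or with a fixed anchor-drug dose plus five library-drug doses (not always all listed) in √10 steps, and nuclei were counted after 5 days.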

EMC-BAC-2 = system: EMC-BAC-2
How it was run: as §1

H3255 = system: H3255
How it was run: as §1

EPLC-272H = system: EPLC-272H
How it was run: as §1

UMC-11 = system: UMC-11
How it was run: as §1

SK-MES-1 = system: SK-MES-1
How it was run: as §1

LCLC-97TM1 = system: LCLC-97TM1
How it was run: as §1

NCI-H2023 = system: NCI-H2023
How it was run: as §1

NCI-H650 = system: NCI-H650
How it was run: as §1

NCI-H1355 = system: NCI-H1355
How it was run: as §1

NCI-H520 = system: NCI-H520
How it was run: as §1

LCLC-103H = system: LCLC-103H
How it was run: as §1

HCC-827 = system: HCC-827
How it was run: as §1

NCI-H1563 = system: NCI-H1563
How it was run: as §1

NCI-H1651 = system: NCI-H1651
How it was run: as §1

NCI-H1793 = system: NCI-H1793
How it was run: as §1

NCI-H2087 = system: NCI-H2087
How it was run: as §1

NCI-H1944 = system: NCI-H1944
How it was run: as §1

ChaGo-K-1 = system: ChaGo-K-1
How it was run: as §1

NCI-H2085 = system: NCI-H2085
How it was run: as §1

NCI-H2405 = system: NCI-H2405
How it was run: as §1

HCC-44 = system: HCC-44
How it was run: as §1

NCI-H1395 = system: NCI-H1395
How it was run: as §1

NC(=O)Nc1cc(-c2cccc(F)c2)sc1C(=O)N[C@H]1CCCNC1 [AZD7762] + N=C(N)NC(=N)NCCc1ccccc1 [Phenformin] (partner 250 µM)
relative viability (NCI-H322M; first compound 0.01 µM): 0.704 | relative viability (NCI-H322M; first compound 0.03162 µM): 0.85 | relative viability (NCI-H322M; first compound 0.1 µM): 0.747 | relative viability (NCI-H322M; first compound 0.3162 µM): 0.36 | relative viability (NCI-H322M; first compound 1 µM): 0.284 | relative viability (EMC-BAC-2; first compound 0.01 µM): 0.52 | relative viability (EMC-BAC-2; first compound 0.03162 µM): 0.581 | relative viability (EMC-BAC-2; first compound 0.1 µM): 0.542 | relative viability (EMC-BAC-2; first compound 0.3162 µM): 0.448 | relative viability (EMC-BAC-2; first compound 1 µM): 0.474 | relative viability (H3255; first compound 0.01 µM): 0.337 | relative viability (H3255; first compound 0.03162 µM): 0.357 | relative viability (H3255; first compound 0.1 µM): 0.402 | relative viability (H3255; first compound 0.3162 µM): 0.378 | relative viability (H3255; first compound 1 µM): 0.374 | relative viability (EPLC-272H; first compound 0.01 µM): 0.325 | relative viability (EPLC-272H; first compound 0.03162 µM): 0.359 | relative viability (EPLC-272H; first compound 0.1 µM): 0.278 | relative viability (EPLC-272H; first compound 0.3162 µM): 0.261 | relative viability (EPLC-272H; first compound 1 µM): 0.164 | relative viability (UMC-11; first compound 0.01 µM): 0.372 | relative viability (UMC-11; first compound 0.03162 µM): 0.322 | relative viability (UMC-11; first compound 0.1 µM): 0.238 | relative viability (UMC-11; first compound 0.3162 µM): 0.25 | relative viability (UMC-11; first compound 1 µM): 0.234 | relative viability (SK-MES-1; first compound 0.01 µM): 0.699 | relative viability (SK-MES-1; first compound 0.03162 µM): 0.663 | relative viability (SK-MES-1; first compound 0.1 µM): 0.709 | relative viability (SK-MES-1; first compound 0.3162 µM): 0.501 | relative viability (SK-MES-1; first compound 1 µM): 0.158 | relative viability (LCLC-97TM1; first compound 0.01 µM): 0.429 | relative viability (LCLC-97TM1; first compound 0.03162 µM): 0.434 | relative viability (LCLC-97TM1; first compound 0.1 µM): 0.479 | relative viability (LCLC-97TM1; first compound 0.3162 µM): 0.406 | relative viability (LCLC-97TM1; first compound 1 µM): 0.433 | relative viability (NCI-H2023; first compound 0.01 µM): 0.446 | relative viability (NCI-H2023; first compound 0.03162 µM): 0.394 | relative viability (NCI-H2023; first compound 0.1 µM): 0.255 | relative viability (NCI-H2023; first compound 0.3162 µM): 0.171 | relative viability (NCI-H2023; first compound 1 µM): 0.1 | relative viability (NCI-H650; first compound 0.01 µM): 0.453 | relative viability (NCI-H650; first compound 0.03162 µM): 0.46 | relative viability (NCI-H650; first compound 0.1 µM): 0.49 | relative viability (NCI-H650; first compound 0.3162 µM): 0.446 | relative viability (NCI-H650; first compound 1 µM): 0.538 | relative viability (NCI-H1355; first compound 0.01 µM): 0.403 | relative viability (NCI-H1355; first compound 0.03162 µM): 0.501 | relative viability (NCI-H1355; first compound 0.1 µM): 0.456 | relative viability (NCI-H1355; first compound 0.3162 µM): 0.49 | relative viability (NCI-H1355; first compound 1 µM): 0.444 | relative viability (NCI-H520; first compound 0.01 µM): 0.623 | relative viability (NCI-H520; first compound 0.03162 µM): 0.758 | relative viability (NCI-H520; first compound 0.1 µM): 0.585 | relative viability (NCI-H520; first compound 0.3162 µM): 0.306 | relative viability (NCI-H520; first compound 1 µM): 0.283 | relative viability (LCLC-103H; first compound 0.01 µM): 0.376 | relative viability (LCLC-103H; first compound 0.03162 µM): 0.35 | relative viability (LCLC-103H; first compound 0.1 µM): 0.352 | relative viability (LCLC-103H; first compound 0.3162 µM): 0.312 | relative viability (LCLC-103H; first compound 1 µM): 0.339 | relative viability (HCC-827; first compound 0.01 µM): 0.406 | relative viability (HCC-827; first compound 0.03162 µM): 0.422 | relative viability (HCC-827; first compound 0.1 µM): 0.442 | relative viability (HCC-827; first compound 0.3162 µM): 0.435 | relative viability (HCC-827; first compound 1 µM): 0.249 | relative viability (NCI-H1563; first compound 0.01 µM): 0.645 | relative viability (NCI-H1563; first compound 0.03162 µM): 0.691 | relative viability (NCI-H1563; first compound 0.1 µM): 0.687 | relative viability (NCI-H1563; first compound 0.3162 µM): 0.612 | relative viability (NCI-H1563; first compound 1 µM): 0.694 | relative viability (NCI-H1651; first compound 0.01 µM): 0.36 | relative viability (NCI-H1651; first compound 0.03162 µM): 0.434 | relative viability (NCI-H1651; first compound 0.1 µM): 0.319 | relative viability (NCI-H1651; first compound 0.3162 µM): 0.268 | relative viability (NCI-H1651; first compound 1 µM): 0.17 | relative viability (NCI-H1793; first compound 0.01 µM): 0.428 | relative viability (NCI-H1793; first compound 0.03162 µM): 0.416 | relative viability (NCI-H1793; first compound 0.1 µM): 0.278 | relative viability (NCI-H1793; first compound 0.3162 µM): 0.351 | relative viability (NCI-H1793; first compound 1 µM): 0.279 | relative viability (NCI-H2087; first compound 0.01 µM): 0.434 | relative viability (NCI-H2087; first compound 0.03162 µM): 0.513 | relative viability (NCI-H2087; first compound 0.1 µM): 0.566 | relative viability (NCI-H2087; first compound 0.3162 µM): 0.553 | relative viability (NCI-H2087; first compound 1 µM): 0.554 | relative viability (NCI-H1944; first compound 0.01 µM): 0.196 | relative viability (NCI-H1944; first compound 0.03162 µM): 0.23 | relative viability (NCI-H1944; first compound 0.1 µM): 0.231 | relative viability (NCI-H1944; first compound 0.3162 µM): 0.273 | relative viability (NCI-H1944; first compound 1 µM): 0.21 | relative viability (ChaGo-K-1; first compound 0.01 µM): 0.517 | relative viability (ChaGo-K-1; first compound 0.03162 µM): 0.513 | relative viability (ChaGo-K-1; first compound 0.1 µM): 0.479 | relative viability (ChaGo-K-1; first compound 0.3162 µM): 0.468 | relative viability (ChaGo-K-1; first compound 1 µM): 0.496 | relative viability (NCI-H2085; first compound 0.01 µM): 0.647 | relative viability (NCI-H2085; first compound 0.03162 µM): 0.806 | relative viability (NCI-H2085; first compound 0.1 µM): 0.811 | relative viability (NCI-H2085; first compound 0.3162 µM): 0.685 | relative viability (NCI-H2085; first compound 1 µM): 0.496 | relative viability (NCI-H2405; first compound 0.01 µM): 0.4 | relative viability (NCI-H2405; first compound 0.03162 µM): 0.452 | relative viability (NCI-H2405; first compound 0.1 µM): 0.402 | relative viability (NCI-H2405; first compound 0.3162 µM): 0.425 | relative viability (NCI-H2405; first compound 1 µM): 0.242 | relative viability (HCC-44; first compound 0.01 µM): 0.154 | relative viability (HCC-44; first compound 0.03162 µM): 0.265 | relative viability (HCC-44; first compound 0.1 µM): 0.16 | relative viability (HCC-44; first compound 0.3162 µM): 0.185 | relative viability (HCC-44; first compound 1 µM): 0.121 | relative viability (NCI-H1395; first compound 0.01 µM): 0.471 | relative viability (NCI-H1395; first compound 0.03162 µM): 0.47 | relative viability (NCI-H1395; first compound 0.1 µM): 0.491 | relative viability (NCI-H1395; first compound 0.3162 µM): 0.434 | relative viability (NCI-H1395; first compound 1 µM): 0.381
